The target of data set [1] is T1, Phosphatidylinositol 4,5-bisphosphate 3-kinase catalytic subunit delta isoform (Homo sapiens, UniProt O00329).
T1 sequence (O00329 whole entry): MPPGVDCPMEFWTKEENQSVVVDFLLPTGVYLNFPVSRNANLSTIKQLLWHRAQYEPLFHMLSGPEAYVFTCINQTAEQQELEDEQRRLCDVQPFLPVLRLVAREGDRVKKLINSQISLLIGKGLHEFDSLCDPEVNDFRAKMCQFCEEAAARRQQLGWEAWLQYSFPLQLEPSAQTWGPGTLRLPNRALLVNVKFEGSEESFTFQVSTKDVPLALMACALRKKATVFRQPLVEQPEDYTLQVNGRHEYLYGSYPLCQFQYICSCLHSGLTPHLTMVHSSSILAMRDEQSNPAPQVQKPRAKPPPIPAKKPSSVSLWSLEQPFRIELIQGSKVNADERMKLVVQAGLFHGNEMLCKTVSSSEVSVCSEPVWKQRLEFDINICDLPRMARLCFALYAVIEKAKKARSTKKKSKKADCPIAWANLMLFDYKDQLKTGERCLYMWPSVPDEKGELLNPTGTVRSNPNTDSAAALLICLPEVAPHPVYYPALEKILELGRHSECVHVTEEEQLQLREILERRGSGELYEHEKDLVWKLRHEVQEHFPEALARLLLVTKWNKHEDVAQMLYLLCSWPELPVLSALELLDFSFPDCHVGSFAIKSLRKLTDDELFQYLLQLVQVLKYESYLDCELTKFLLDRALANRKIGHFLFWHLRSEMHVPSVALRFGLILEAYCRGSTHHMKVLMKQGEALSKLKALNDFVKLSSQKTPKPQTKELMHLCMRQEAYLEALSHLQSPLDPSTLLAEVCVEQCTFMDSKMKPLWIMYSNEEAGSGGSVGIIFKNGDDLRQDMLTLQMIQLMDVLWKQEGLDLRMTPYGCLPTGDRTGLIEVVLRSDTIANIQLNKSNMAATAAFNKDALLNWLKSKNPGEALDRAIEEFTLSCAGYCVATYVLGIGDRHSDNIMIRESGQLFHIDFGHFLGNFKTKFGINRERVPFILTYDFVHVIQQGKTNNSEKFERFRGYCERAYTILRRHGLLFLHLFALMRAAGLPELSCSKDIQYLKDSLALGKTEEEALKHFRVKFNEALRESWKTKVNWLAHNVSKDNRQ

Data set [2] has as its system B cell. Put plainly: Antiproliferative activity against human B cells by thymidine incorporation assay. In kind it is functional, cell-based. In general terms: Dividing cells build labelled thymidine or BrdU into new DNA.
The nature of data set [3]: Stability in mouse liver microsomes assessed as parent compound remaining at 0.5 uM after 10 mins by high throughput assay. Particulars: read-out: Stability. In kind it is ADME, Microsome. (In general: Liver microsomes are a subcellular fraction often used to study metabolism.)
Data set [4] can be described thus: Stability in rat liver microsomes assessed as parent compound remaining at 0.5 uM after 10 mins by high throughput assay. In kind it is ADME, Microsome. Particulars: read-out: Stability.
Data set [5] addresses T1, Phosphatidylinositol 4,5-bisphosphate 3-kinase catalytic subunit delta isoform. As to the kind of experiment: Inhibition of PI3Kdelta in BCR-stimulated human B cells assessed as suppression of CD86 expression after 18 hrs by FACS analysis.
Data set [6] relates to Mus musculus. Put plainly: Antiarthritic activity in DBA/1 mouse model of collagen-induced arthritis assessed as reduction in clinical arthritic scores at 1 mg/kg/day, po pretreated for 2 hrs followed by first collagen injection measured after second collagen injection on day 21 relative to control. In kind it is functional. Further details: scale not given: the % may be the effect or the level left.

Data set [7] has as its system Mus musculus. As to the kind of experiment: Antiarthritic activity in DBA/1 mouse model of collagen-induced arthritis assessed as reduction in anti-collagen IgG titres at 1 mg/kg/day, po pretreated for 2 hrs followed by first collagen injection measured after second collagen injection on day 21 by ELISA relative to control. In kind it is functional. Further details: scale not given: the % may be the effect or the level left. (ELISA stands for enzyme-linked immunosorbent assay.)

Data set [8] can be described thus: Clearance in mouse. In kind it is ADME, organism-based. The note with it: in vivo.
Data set [9] is described as follows: Oral bioavailability in mouse. It is filed as ADME, organism-based. Particulars: in vivo.
The nature of data set [10]: AUC in mouse at 30 mg/kg, po. In kind it is ADME, organism-based. Particulars: in vivo.
The test system of data set [11] is Mus musculus. As to the kind of experiment: Antiarthritic activity in DBA/1 mouse model of collagen-induced arthritis assessed as reduction in clinical arthritic scores at 100 mg/kg, po pretreated for 2 hrs followed by first collagen injection measured after second collagen injection on day 21 relative to control. In kind it is functional. On the set-up: scale not given: the % may be the effect or the level left.

Data set [12] can be described thus: Volume of distribution in mouse. It is filed as ADME, organism-based. The note with it: in vivo.
In data set [13] the test system is Mus musculus. Put plainly: Antiarthritic activity in DBA/1 mouse model of collagen-induced arthritis assessed as reduction in anti-collagen IgG titres at 100 mg/kg, po pretreated for 2 hrs followed by first collagen injection measured after second collagen injection on day 21 by ELISA relative to control. Further details: scale not given: the % may be the effect or the level left. It is filed as functional.

Data set [14] in a line: Cmax in mouse at 30 mg/kg, po. It is filed as ADME, organism-based. Further details: dose 30 mg/kg, route oral. Particulars: in vivo.
A short description of data set [15]: Half life in mouse. In kind it is ADME, organism-based. The note with it: in vivo.
In data set [16] the test system is Cytochrome P450. As to the kind of experiment: Inhibition of Cytochrome P450 (unknown origin). It is filed as ADME, protein assay. The note with it: human.

SMILES strings stand for the structures.

Usually IC50 stands for the concentration that gives 50% inhibition. Regarding `Nc1ncnn2ccc(-c3ccnn3C3CCCCC3)c12`, the IC50 in data set [1] was 0.405 µM.
Turning to `Cn1cc(-c2cc(-c3ccnn3C3CCCCC3)c3c(N)ncnn23)cn1`, the IC50 in data set [1] is 0.011 µM.
For the compound `Nc1ncnn2c(-c3cccnc3)cc(-c3ccnn3C3CCCCCC3)c12`, half-maximal inhibition in data set [1] (IC50) required 0.231 µM.
As to `Nc1ncnn2c(-c3cccc(CN4CCCC4=O)c3)cc(-c3ccnn3C3CCOCC3)c12`, in [2], the 50% inhibitory concentration (IC50) amounted to 0.035 µM. The remaining at 10 min, 0.5 µM in data set [3] worked out at 19%.
In turn, `Nc1ncnn2c(-c3cccnc3)cc(-c3ccnn3C3CCCC3)c12` returned a concentration for half-maximal inhibition (IC50) in [1] of 0.029 µM.
As to `CC(C)[C@H]1COC(=O)N1Cc1cccc(-c2cc(-c3ccnn3C3CCOCC3)c3c(N)ncnn23)c1`, the remaining at 10 min, 0.5 µM in data set [3] worked out at 0.09%.
Turning to `Nc1ncnn2c(-c3cccc(CO)c3)cc(-c3ccnn3C3CCCCC3)c12`, in [1], the IC50 worked out at 0.027 µM.
With `Nc1ncnn2c(-c3ccncc3)cc(-c3ccnn3C3CCCCC3)c12`, the figures for the remaining at 10 min, 0.5 µM in data set [4] and in [3] were 46% and 16%, respectively. In [1], this compound yielded a 50% inhibitory concentration (IC50) of 0.022 µM.
In the case of `CN(C)C1(c2cccc(-c3cc(-c4ccnn4C4CCOCC4)c4c(N)ncnn34)c2)COC1`, the IC50 in data set [2] turned out to be 0.009 µM. For the same compound, the remaining at 10 min, 0.5 µM in data set [3] worked out at 70%.
Consider `Nc1ncnn2c(-c3cccc(C(=O)N4CCCC4)c3)cc(-c3ccnn3C3CCCCC3)c12`, for which the figures for the IC50 in data set [5] and in data set [1] were 0.036 µM and 0.002 µM, respectively.
As to `Nc1ncnn2c(-c3cccnc3)cc(-c3ccnn3C3CCOCC3)c12`, half-maximal inhibition in [1] (IC50) was put at 0.042 µM.
The same measure, in the same setting: then `Nc1ncnn2c(-c3cccnc3)cc(-c3ccnn3C3CCS(=O)(=O)CC3)c12`, with 0.163 µM.
In the case of `CC1(C)OC(=O)NC1c1cccc(-c2cc(-c3ccnn3C3CCOCC3)c3c(N)ncnn23)c1` (centres undefined), in data set [2], half-maximal inhibition (IC50) was put at 0.031 µM. Further, the remaining at 10 min, 0.5 µM in [3] was 45%.
Regarding `CN1C[C@H](O)C[C@@H]1c1cccc(-c2cc(-c3ccnn3C3CCOCC3)c3c(N)ncnn23)c1`, the IC50 in [2] was found to be 0.087 µM. Besides, the remaining at 10 min, 0.5 µM in data set [3] was determined as 65%.
Regarding `CN(C)c1cccc(-c2cc(-c3ccnn3C3CCCCC3)c3c(N)ncnn23)c1`, the IC50 in data set [5] is 0.016 µM; in data set [1], 0.003 µM.
For the compound `CN(Cc1cnc2nc(N)nc(N)c2n1)c1ccc(C(=O)N[C@@H](CCC(=O)O)C(=O)O)cc1` [METHOTREXATE], the Activity in data set [6] is 83%; in [7], 63%.
Compound `NCc1ccc(-c2cc(-c3ccnn3C3CCCCC3)c3c(N)ncnn23)cc1` yielded an IC50 in data set [1] of 0.026 µM.
On to `Nc1ncnn2c(-c3ccc(CO)cc3)cc(-c3ccnn3C3CCCCC3)c12`, for which inhibition in data set [1] was half-maximal at 0.031 µM (IC50).
Consider `Nc1ncnn2c(-c3cccc(S(N)(=O)=O)c3)cc(-c3ccnn3C3CCCCC3)c12`, for which, in [1], the IC50 came out at 0.014 µM.
As usually defined, the clearance is a measure of how efficiently the substance is removed, as volume per time. A word on the bioavailability: it is dose-corrected exposure relative to a reference, in per cent. By AUC is commonly meant the area under the concentration-time curve, a measure of exposure. One may read the Vd as a proportionality between amount in the body and measured concentration, not a real space. For orientation: Cmax means the peak of the concentration-time curve. What is called half-life is the time needed for the level to fall by half in the phase considered. In data set [8], `CN(C)C(C)(C)c1cccc(-c2cc(-c3ccnn3C3CCOCC3)c3c(N)ncnn23)c1` displayed a clearance of 4.93 L/h/kg. In addition, the bioavailability in data set [9] came to 46%. The same compound showed an area under the curve (AUC) in data set [10] of 6.23 µM·h. In addition, the Activity in data set [11] was 100%; in data set [13], 80%. In data set [12], this compound gave a Vd of 6.2 L/kg. In data set [2], this compound showed a half-inhibitory concentration (IC50) of 0.006 µM. The compound further displayed a Cmax in data set [14] of 2.89 µM. The compound also gave a half-life in data set [15] of 1 h. The remaining at 10 min, 0.5 µM in data set [3] is 58%.
In [1], `CN1CCC(n2nccc2-c2cc(-c3cccnc3)n3ncnc(N)c23)CC1` displayed an IC50 of 0.15 µM.
`CN1CCN(Cc2cccc(-c3cc(-c4ccnn4C4CCOCC4)c4c(N)ncnn34)c2)CC1`: the IC50 in [5] came to 0.721 µM; in [2], 0.028 µM; in [1], 0.004 µM. Further, the remaining at 10 min, 0.5 µM in data set [3] was determined as 100%.
Regarding `Nc1ncnn2c(-c3cccnc3)cc(-c3ccnn3C3CCCCC3)c12`, the “inhibition (INH)” value in data set [16] is “Not Active”. The same compound returned an IC50 in [1] of 0.022 µM.
As to `CS(=O)(=O)NCc1cccc(-c2cc(-c3ccnn3C3CCOCC3)c3c(N)ncnn23)c1`, the IC50 in data set [2] is 0.099 µM.
In [2], `Nc1ncnn2c(-c3cccc(C4(N5CCOCC5)COC4)c3)cc(-c3ccnn3C3CCOCC3)c12` came in with a half-inhibitory concentration (IC50) of 0.001 µM. In addition, the remaining at 10 min, 0.5 µM in [3] came to 6%.
`CC(C)Cn1nccc1-c1cc(-c2cccnc2)n2ncnc(N)c12` registered an IC50 in data set [1] of 0.252 µM.
`Nc1ncnn2c(-c3ccccc3)cc(-c3ccnn3C3CCCCC3)c12` gave an IC50 in [1] of 0.576 µM.
Regarding `CC(C)C(=O)N1C[C@H](O)C[C@H]1c1cccc(-c2cc(-c3ccnn3C3CCOCC3)c3c(N)ncnn23)c1`, the IC50 in data set [5] stood at 0.11 µM; in [2], 0.008 µM; in [1], 0.001 µM. Further, the remaining at 10 min, 0.5 µM in data set [3] is 4%.

The values are drawn from ChEMBL document CHEMBL4425186, “Discovery and SAR of pyrrolo[2,1-f][1,2,4]triazin-4-amines as potent and selective PI3Kδ inhibitors” (Bioorg Med Chem Lett, 2016).
